Results as given in US9676760B2, “Fused heterocyclic compounds as ion channel modulators” (Gilead Sciences, Inc., priority 2011, dated 2017).

Target: wild-type human cardiac sodium channel, hNav1.5 (Homo sapiens, UniProt Q14524)
Assay: Late INa screening assay (QPatch whole cell patch clamp, HEK293)
Format: cell-based
Conditions: HEK293, percent block of late INa; compound at 1 μM; 10 μM Tefluthrin; read-out: Late INa 1 μM
Procedure: The late sodium current (Late INa) and peak sodium current (Peak INa) assays are performed on an automated electrophysiology platform, QPatch 16× (Sophion Bioscience, Copenhagen, Denmark), which uses the whole cell patch clamp technique to measure currents through the cell membrane of up to 16 cells at a time. The assay uses an HEK293 (human embryonic kidney) cell line heterologously expressing the wild-type human cardiac sodium channel, hNav1.5, purchased from Millipore (Billerica, Mass.). No beta subunits were coexpressed with the Na channel alpha subunit. Cells are maintained with standard tissue culture procedures and stable channel expression is maintained with 400 μg/mL Geneticin in the culture medium. Cells isolated for use on QPatch are incubated for 5 minutes in Detachin 1×(Genlantis, San Diego, USA) at 37° C. to ensure that 80-90% of the cells are single and not part of a cell cluster. Experiments are carried out at 23-25° C.
For both the Late INa and Peak INa assays, series resistance compensation is set to 100% and series resistance and whole-cell compensation are performed automatically. Currents are digitized at 25 kHz and low-pass filtered at 12 kHz and 10 kHz for the late and peak INa assays, respectively. Currents through open sodium channels are automatically recorded and stored in the Sophion Bioscience Oracle database (Sophion Bioscience, Copenhagen, Denmark). Analysis is performed using QPatch Assay and database software and data are compiled in Excel.
Compound stocks are routinely made by the Gilead Sample Bank in plastic vials to 10 mM in dimethyl sulfoxide (DMSO). In some cases, when compounds are not soluble in DMSO, they are made in 100% ethanol. Stocks are sonicated as necessary. The extracellular solution for screening Late INa is composed of: 140 mM NaCl, 4 mM KCl, 1.8 mM CaCl2, 0.75 mM MgCl2 and 5 mM HEPES with pH adjusted to 7.4 using NaOH. The intracellular solution used to perfuse the inside of the cells for both the Late INa and Peak INa assays contains: 120 mM CsF, 20 mM CsCl, 5 mM EGTA, 5 mM HEPES and pH adjusted to 7.4 with CsOH. Compounds are diluted in extracellular solution to 1 μM in glass vials and then transferred to glass well plates before robotic addition to the cells. The 0 mM Na extracellular solution (0Na-ECF) used at the end of each experiment for the Late INa and Peak INa assays to measure baseline current contains: 140 mM N-methyl-D-glucamine; 4 mM KCl; 1.8 mM CaCl2; 0.75 mM MgCl2; 5 mM HEPES and pH was adjusted to 7.4 with HCl.
For the Late INa assay, sodium channels are activated every 10 seconds (0.1 Hz) by depolarizing the cell membrane to −20 mV for 250 milliseconds (ms) from a holding potential of −120 mV. In response to a −20 mV voltage step, typical hNav1.5 sodium currents activate rapidly to a peak negative current and then inactivate nearly completely within 3-4 ms.
Compounds were tested to determine their activity in blocking the late sodium current. Late INa was generated by adding 10 μM Tefluthrin (pyrethroid) to the extracellular solution while recording Na currents. […] ATX-II and tefluthrin occupy distinct, non-overlapping binding sites and modify Na^+ channel function differently to increase late INa. […] After establishing the whole cell recording configuration, late INa activator is added to each well 4 times over a 16-17 minute period so that the late component of the Na current reaches a stable value.
Results are reported as percent block of late INa.

Sequence of wild-type human cardiac sodium channel, hNav1.5 (Q14524 whole entry): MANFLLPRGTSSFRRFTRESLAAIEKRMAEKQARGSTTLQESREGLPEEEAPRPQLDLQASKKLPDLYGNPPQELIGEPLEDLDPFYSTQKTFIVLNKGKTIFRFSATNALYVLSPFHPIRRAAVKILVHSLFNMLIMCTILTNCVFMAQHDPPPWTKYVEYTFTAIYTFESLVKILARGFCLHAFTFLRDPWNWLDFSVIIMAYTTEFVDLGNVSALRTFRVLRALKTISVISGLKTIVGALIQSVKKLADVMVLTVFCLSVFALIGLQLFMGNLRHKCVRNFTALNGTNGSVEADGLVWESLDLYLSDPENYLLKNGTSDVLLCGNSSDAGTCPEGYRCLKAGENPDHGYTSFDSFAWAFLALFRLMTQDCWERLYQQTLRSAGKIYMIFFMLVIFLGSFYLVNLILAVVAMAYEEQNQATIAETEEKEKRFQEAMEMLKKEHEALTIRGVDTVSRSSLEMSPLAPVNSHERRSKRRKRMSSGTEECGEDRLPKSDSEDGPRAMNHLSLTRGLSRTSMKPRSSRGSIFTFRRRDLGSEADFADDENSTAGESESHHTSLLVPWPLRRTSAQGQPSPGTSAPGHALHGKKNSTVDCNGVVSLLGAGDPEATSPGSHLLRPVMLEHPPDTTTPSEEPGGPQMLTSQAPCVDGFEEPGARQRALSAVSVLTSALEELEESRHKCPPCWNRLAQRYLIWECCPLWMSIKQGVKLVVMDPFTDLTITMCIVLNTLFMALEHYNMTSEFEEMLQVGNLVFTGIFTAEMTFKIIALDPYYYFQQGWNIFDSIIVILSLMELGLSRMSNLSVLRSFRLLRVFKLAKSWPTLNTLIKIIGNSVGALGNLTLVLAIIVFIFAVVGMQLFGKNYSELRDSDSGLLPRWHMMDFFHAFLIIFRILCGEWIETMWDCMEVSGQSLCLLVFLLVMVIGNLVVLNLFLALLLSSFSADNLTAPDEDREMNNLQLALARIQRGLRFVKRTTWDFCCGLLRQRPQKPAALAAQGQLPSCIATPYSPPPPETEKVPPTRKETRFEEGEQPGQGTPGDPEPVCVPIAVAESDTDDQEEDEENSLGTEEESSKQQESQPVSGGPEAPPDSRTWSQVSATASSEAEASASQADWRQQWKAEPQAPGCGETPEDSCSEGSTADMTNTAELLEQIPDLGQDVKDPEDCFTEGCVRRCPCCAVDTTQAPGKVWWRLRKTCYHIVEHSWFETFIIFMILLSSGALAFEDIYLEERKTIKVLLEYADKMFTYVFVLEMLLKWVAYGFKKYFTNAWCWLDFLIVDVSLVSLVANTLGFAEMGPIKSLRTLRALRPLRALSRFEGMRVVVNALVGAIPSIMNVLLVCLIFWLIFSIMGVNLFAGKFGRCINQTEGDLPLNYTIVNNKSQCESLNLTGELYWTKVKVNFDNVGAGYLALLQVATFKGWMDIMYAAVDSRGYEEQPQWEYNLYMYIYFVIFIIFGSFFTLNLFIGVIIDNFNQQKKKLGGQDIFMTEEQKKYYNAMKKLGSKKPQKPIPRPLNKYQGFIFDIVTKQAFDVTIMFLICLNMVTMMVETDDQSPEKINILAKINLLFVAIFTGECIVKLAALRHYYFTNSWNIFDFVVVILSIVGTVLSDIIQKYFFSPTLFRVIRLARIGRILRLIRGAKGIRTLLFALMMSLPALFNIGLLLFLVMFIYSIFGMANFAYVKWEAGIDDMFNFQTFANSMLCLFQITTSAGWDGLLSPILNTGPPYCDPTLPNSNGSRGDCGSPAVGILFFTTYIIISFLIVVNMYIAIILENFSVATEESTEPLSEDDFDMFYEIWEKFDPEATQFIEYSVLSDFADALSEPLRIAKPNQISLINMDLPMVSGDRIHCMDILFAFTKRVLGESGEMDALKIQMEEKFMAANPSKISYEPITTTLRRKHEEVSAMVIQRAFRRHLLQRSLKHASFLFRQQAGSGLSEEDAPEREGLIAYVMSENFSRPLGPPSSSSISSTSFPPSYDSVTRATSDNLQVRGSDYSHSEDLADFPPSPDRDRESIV

| Compound | inhibition at 1 µM |
| --- | --- |
| N[C@@H]1C[C@H]2COc3ccc(-c4ccc(C(F)(F)F)cc4)cc3C(=O)N2C1 [II-21, (2R,11aS)-2-amino-7-(4-(trifluoromethyl)phenyl)-2,3,11,11a-tetrahydrobenzo[f]pyrrolo[2,1-c][1,4]oxazepin-5(1H)-one] | 18% |
| CCN1CCN2C(=O)c3cc(-c4ccc(C(F)(F)F)cc4)ccc3OC[C@H]2C1 [II-23, (R)-2-ethyl-8-(4-(trifluoromethyl)phenyl)-3,4,12,12a-tetrahydro-1H-benzo[f]pyrazino[2,1-c][1,4]oxazepin-6(2H)-one] | 25% |
| O=C1c2cc(-c3ccc(C(F)(F)F)cc3)ccc2OC[C@@H]2CN(CC(F)F)CCN12 [II-24, (S)-2-(2,2-difluoroethyl)-8-(4-(trifluoromethyl)phenyl)-3,4,12,12a-tetrahydro-1H-benzo[f]pyrazino[2,1-c][1,4]oxazepin-6(2H)-one] | 23% |
| CCN1CCN2C(=O)c3cc(-c4ccc(C(F)(F)F)cc4)ccc3OC[C@@H]2C1 [II-25, (S)-2-ethyl-8-(4-(trifluoromethyl)phenyl)-3,4,12,12a-tetrahydro-1H-benzo[f]pyrazino[2,1-c][1,4]oxazepin-6(2H)-one] | 25% |
| CC1(C)COC(C)(CCN2CCOc3ccc(-c4ccc(OC(F)(F)F)cc4)cc3C2=O)OC1 [II-35, 7-(4-(trifluoromethoxy)phenyl)-4-(2-(2,5,5-trimethyl-1,3-dioxan-2-yl)ethyl)-3,4-dihydrobenzo[f][1,4]oxazepin-5(2H)-one] | 25% |
| CC(C)(C)OC(=O)N[C@@H]1C[C@@H]2COc3ccc(-c4ccc(C(F)(F)F)cc4)cc3C(=O)N2C1 [II-39, tert-butyl (2R,11aR)-5-oxo-7-(4-(trifluoromethyl)phenyl)-1,2,3,5,11,11a-hexahydrobenzo[f]pyrrolo[2,1-c][1,4]oxazepin-2-ylcarbamate] | 16% |
| O=C1c2cc(-c3ccc(OC(F)(F)F)cc3)ccc2OCCN1Cc1cc(-c2ccccn2)on1 [II-41, 4-((5-(pyridin-2-yl)isoxazol-3-yl)methyl)-7-(4-(trifluoromethoxy)phenyl)-3,4-dihydrobenzo[f][1,4]oxazepin-5(2H)-one] | 17% |
| CCOC(=O)c1cccc(CN2CCOc3ccc(-c4ccc(OC(F)(F)F)cc4)cc3C2=O)c1 [II-43, ethyl 3-((5-oxo-7-(4-(trifluoromethoxy)phenyl)-2,3-dihydrobenzo[f][1,4]oxazepin-4(5H)-yl)methyl)benzoate] | 23% |
| O=C1c2cc(-c3ccc(OC(F)(F)F)cc3)ccc2OCCN1CCc1ncccn1 [II-44, 4-(2-(pyrimidin-2-yl)ethyl)-7-(4-(trifluoromethoxy)phenyl)-3,4-dihydrobenzo[f][1,4]oxazepin-5(2H)-one] | 39% |
| O=C1c2cc(-c3ccc(OC(F)(F)F)cc3)ccc2OCCN1Cc1ccc(F)c(F)c1 [II-45, 4-(3,4-difluorobenzyl)-7-(4-(trifluoromethoxy)phenyl)-3,4-dihydrobenzo[f][1,4]oxazepin-5(2H)-one] | 27% |
| N[C@H]1C[C@H]2COc3ccc(-c4ccc(C(F)(F)F)cc4)cc3C(=O)N2C1 [II-51, (2S,11aS)-2-amino-7-(4-(trifluoromethyl)phenyl)-2,3,11,11a-tetrahydrobenzo[f]pyrrolo[2,1-c][1,4]oxazepin-5(1H)-one] | 20% |
| O=C1c2cc(-c3ccc(C(F)(F)F)cc3)ccc2OC[C@H]2CCCN12 [II-59, (R)-7-(4-(trifluoromethyl)phenyl)-2,3,11,11a-tetrahydrobenzo[f]pyrrolo[2,1-c][1,4]oxazepin-5(1H)-one] | 15% |
| O=C1c2cc(-c3ccc(OC(F)(F)F)cc3)ccc2OCCN1Cc1ncc(Cl)cn1 [II-65, 4-((5-chloropyrimidin-2-yl)methyl)-7-(4-(trifluoromethoxy)phenyl)-3,4-dihydrobenzo[f][1,4]oxazepin-5(2H)-one] | 19% |
| O=C1c2cc(-c3ccc(OC(F)(F)F)cc3)ccc2OCCN1Cc1ccncc1 [II-67, 4-(pyridin-4-ylmethyl)-7-(4-(trifluoromethoxy)phenyl)-3,4-dihydrobenzo[f][1,4]oxazepin-5(2H)-one] | 22% |
| O=C1c2cc(-c3ccc(OC(F)(F)F)cc3)ccc2OCCN1Cc1nnc(C2CC2)o1 [II-68, 4-((5-cyclopropyl-1,3,4-oxadiazol-2-yl)methyl)-7-(4-(trifluoromethoxy)phenyl)-3,4-dihydrobenzo[f][1,4]oxazepin-5(2H)-one] | 17% |
| O=C1c2cc(-c3ccc(OC(F)(F)F)cc3)ccc2OCCN1CCOc1ncccn1 [II-69, 4-(2-(pyrimidin-2-yloxy)ethyl)-7-(4-(trifluoromethoxy)phenyl)-3,4-dihydrobenzo[f][1,4]oxazepin-5(2H)-one] | 33% |
| O=C1c2cc(-c3ccc(OC(F)(F)F)cc3)ccc2OCCN1Cc1cccnc1 [II-70, 4-(pyridin-3-ylmethyl)-7-(4-(trifluoromethoxy)phenyl)-3,4-dihydrobenzo[f][1,4]oxazepin-5(2H)-one] | 37% |
| O=C1c2cc(-c3ccc(OC(F)(F)F)cc3)ccc2OCCN1CCO [II-71, 4-(2-hydroxyethyl)-7-(4-(trifluoromethoxy)phenyl)-3,4-dihydrobenzo[f][1,4]oxazepin-5(2H)-one] | 12% |
| O=C1NCCOc2ccc(-c3ccc(OC(F)(F)F)cc3)cc21 [II-74, 7-(4-(trifluoromethoxy)phenyl)-3,4-dihydrobenzo[f][1,4]oxazepin-5(2H)-one] | 12% |
| CC(C)[C@H]1COc2ccc(-c3ccc(C(F)(F)F)cc3)cc2C(=O)N1 [II-77, (S)-3-isopropyl-7-(4-(trifluoromethyl)phenyl)-3,4-dihydrobenzo[f][1,4]oxazepin-5(2H)-one] | 21% |
| Cc1ccc(-c2ccc3c(c2)C(=O)N(Cc2ncccn2)CCO3)cc1 [II-87, 4-(pyrimidin-2-ylmethyl)-7-p-tolyl-3,4-dihydrobenzo[f][1,4]oxazepin-5(2H)-one] | 22% |
| CC(C)c1ccc(-c2ccc3c(c2)C(=O)N(Cc2ncccn2)CCO3)cc1 [II-89, 7-(4-isopropylphenyl)-4-(pyrimidin-2-ylmethyl)-3,4-dihydrobenzo[f][1,4]oxazepin-5(2H)-one] | 28% |
| O=C1c2cc(-c3ccc(C4CC4)cc3)ccc2OCCN1Cc1ncccn1 [II-92, 7-(4-cyclopropylphenyl)-4-(pyrimidin-2-ylmethyl)-3,4-dihydrobenzo[f][1,4]oxazepin-5 (2H)-one] | 34% |
| C[C@H](c1ncccn1)N1CCOc2ccc(-c3ccc(C(F)(F)F)cc3)cc2C1=O [II-95, (R)-4-(1-(pyrimidin-2-yl)ethyl)-7-(4-(trifluoromethyl)phenyl)-3,4-dihydrobenzo[f][1,4]oxazepin-5(2H)-one] | 19% |
| CC(C)COc1ccc(-c2ccc3c(c2)C(=O)N(Cc2ncccn2)CCO3)cc1 [II-97, 7-(4-isobutoxyphenyl)-4-(pyrimidin-2-ylmethyl)-3,4-dihydrobenzo[f][1,4]oxazepin-5 (2H)-one] | 36% |
| O=C1c2cc(-c3ccc(OC4CC4)cc3)ccc2OCCN1Cc1ncccn1 [II-102, 7-(4-cyclopropoxyphenyl)-4-(pyrimidin-2-ylmethyl)-3,4-dihydrobenzo[f][1,4]oxazepin-5(2H)-one] | 21% |
| O=C1c2cc(-c3ccc(F)cc3)ccc2OCCN1Cc1ncccn1 [II-104, 7-(4-fluorophenyl)-4-(pyrimidin-2-ylmethyl)-3,4-dihydrobenzo[f][1,4]oxazepin-5(2H)-one] | 21% |
